Source: patent US20220105206A1, “SENSITIVITY ADVANCES IN ULTRASOUND SWITCHABLE FLUORESCENCE SYSTEMS AND TECHNIQUES” (Board of Regents, The University of Texas System, priority 2020, published 2022)

Experiments:
[1] = cited from earlier work
[2] = literature value; cited from earlier work
[3] = Excitation and emission spectra of LNPs (Example 5); type: physicochemical; conditions: 530 nm excitation, 25° C.
Method: The hydrodynamic sizes of liposomes were measured with the DLS particle analyzer (NanoBrook 90PlusPALS, Brookhaven Instruments, USA). The incident angle of the 659 nm laser was 90 degrees. Samples were diluted with DI water until the count rate reaches 300-700 kcps and the temperature was set at 25° C. The excitation and emission spectra of LNPs were characterized via a spectrometer (Fluoromax-Plus-C, Horiba, Japan) using a 300 μL quartz cuvette (Hellma, Germany) with stir at 25° C. The excitation spectrum was scanned from 650-810 nm with an 830 nm LP emission filter and an emission recording wavelength at 850 nm. The emission spectrum was acquired using a 530 nm excitation light with a 550 nm LP emission filter (Semrock, USA) and recorded from 650-850 nm.

emission peak [3]: 809 nm
Structure (SMILES): CC1(C)C(/C=C/C=C/C=C/C=C2\N(CCCCS(=O)(=O)O)c3ccc4ccccc4c3C2(C)C)=[N+](CCCCS(=O)(=O)[O-])c2ccc3ccccc3c21 [ICG, indocyanine green]
degradation of aqueous solutions ([1]; DI water and buffered saline): degraded relatively quickly by day 20
plasma half-life [1]: 2 to 4 min
emission wavelength [2]: around 810 nm
maximum absorption wavelength [2]: around 785 nm
